Experimental data: patent publication US12629370B2, “Treatment of prostate cancer” (Sumitomo Pharma Co., Ltd., priority 2016, dated 2026)
Entries after “also recorded” stand apart in the source; their conditions may differ. Like-named read-outs stand apart in the source and are kept apart here.

Legend:
Assay type in all cases: in vivo, human
[1] = Example 7: single and multiple dose pharmacokinetics and food effect in healthy men; settings: for half-life: read-out: mean plasma T1/2 (converted)
Procedure: Samples were analyzed using validated liquid chromatography with tandem mass spectrometry (LC/MS/MS) methods. The LLOQ was 0.0100 ng/ml for plasma and 0.500 ng/ml for urine.
Then, a formal assessment was performed using both analysis of variance (ANOVA) and power model approaches. […] In Part 2, steady state attainment was determined based on visual inspection of mean observed predose plasma concentration during multiple dosing (Ctrough) versus time profiles at each dose level. Noncompartmental analysis of Part 3 and 4 data were not planned given the limited number of postdose samples collected per subject on Days 1 and 28.

[2] = test system: serum DHT; assay: Example 7: serum DHT in healthy men
Procedure: FSH, DHT, and insulin-like growth factor 1 (IGF-1; Parts 3 and 4 only) were measured in a subset of samples. Serum testosterone was assayed using a conventional immunoassay for screening (LLOQ=0.4 nmol/L). A validated LC/MS/MS method, with an LLOQ of 0.173 nmol/L and a ULOQ of 10.425 nmol/L, was used for all subsequent baseline (i.e., the subject's serum hormone levels prior to treatment commencing) and postdose measurements.

[3] = test system: serum testosterone; assay: Example 8: serum testosterone in men with advanced prostate cancer, versus leuprolide acetate
Text: Eligible men were aged ≥18 years with a histologically confirmed diagnosis of prostate adenocarcinoma, and were candidates for ADT for the management of hormone-sensitive prostate cancer with one of the following clinical disease states: advanced localized disease not suitable for primary surgical or radiation therapy; evidence of PSA biochemical or clinical relapse following primary surgery or radiation therapy of curative intent; or newly diagnosed metastatic disease that was asymptomatic and without visceral involvement. […] Patients with advanced, localized MON1 or M1 disease with clinically significant symptoms or visceral involvement, who required immediate GnRH therapy, chemotherapy, or radiation therapy were not eligible for the trial.
Serum testosterone levels were measured at each visit.

[4] = test system: FSH; assay: Example 8: FSH levels;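 further: FSH determined at every study visit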
Procedure: Patients on leuprorelin received their final injection at week 37, day 1, and the week 49, day 1 visit was considered the end of leuprorelin exposure. Patients receiving leuprorelin at visits at 16 (EOT), 20 (follow-up visit), and 24 (EOS) weeks after the last leuprorelin injection.
FSH levels were also measured at each visit.

[5] = test system: patients with advanced prostate cancer; assay: Example 8: quality of life, Aging Male Survey (AMS); settings: for AMS total score, mean: Baseline
Procedure: Quality of life (QoL) was assessed throughout the study and the follow-up period. The 25-item Prostate Cancer Module of the European Organization for Research and Treatment of Cancer Quality of Life Questionnaire (EORTC QLQ-PR25), Aging Male Survey (AMS), and core 30-item EORTC Quality of Life Questionnaire (EORTC QLQ-C30) were completed at screening, day 1 of weeks 5, 13, 25, 37, and 49, and, if applicable, at the follow-up visits.

[6] = Compound 1 80 or 120 mg QD after 320 mg load
[7] = Compound 1 Total, End of Treatment
[8] = Compound 1 Total, Week 49, Day 1
[9] = Compound 1 Total, Week 2, Day 1
[10] = Compound 1 Total, Week 5, Day 1
[11] = Compound 1 Total, Week 13, Day 1
[12] = Compound 1 Total, Week 25, Day 1

Structure (SMILES): CONC(=O)Nc1ccc(-c2sc3c(c2CN(C)C)c(=O)n(-c2ccc(OC)nn2)c(=O)n3Cc2c(F)cccc2F)cc1 [Compound 1, N-(4-(1-(2,6-difluorobenzyl)-5-((dimethylamino)methyl)-3-(6-methoxy-3-pyridazinyl)-2,4-dioxo-1,2,3,4-tetrahydrothieno[2,3-d]pyrimidin-6-yl)phenyl)-N′-methoxyurea]
- decrease in mean Cmax and mean plasma AUC0-∞ on co-administration with food versus fasting ([1]; 180 mg single dose): approximately 50%
- median Tmax, fasting conditions ([1]; 180 mg single dose): 1.75 h
- median Tmax, fed conditions ([1]; 180 mg single dose, high fat breakfast): 5.00 h
- decrease in mean plasma AUC (systemic exposure), dosing 30 min before standardized meal versus fasted ([1]; 180 mg, Part 2 Day 1 versus Part 1 fasted): approximately 28%
- dose proportionality of mean Cmax at steady state ([1]; 20 to 180 mg QD): increased slightly more than dose-proportionately
- dose proportionality of mean plasma AUC0-tau at steady state ([1]; 20 to 180 mg QD): increased in a dose-proportional manner
- median Tmax ([1]; across all doses studied): ~2 h
- Compound 1 excreted unchanged in urine ([1]; after single and repeat dosing): Less than 4%
- Tmax ([1]; male, human, plasma, oral, 180 mg single dose, high fat breakfast, read-out: median Tmax, fed conditions): 5 h
- half-life ([1]; male, human, plasma, oral, across the 20 to 180 mg QD dose range): 36 to 65 h
- half-life ([1]; male, human, plasma, oral, repeat dosing, 20 mg QD): 64.5 h
- half-life ([1]; male, human, plasma, oral, repeat dosing, 180 mg QD): 35.8 h
- dose proportionality of mean Cmax and mean plasma AUC0-∞ ([1]; single doses of 80 mg to 360 mg): dosed proportionally over 80-360 mg range; also recorded: approximate dose-proportional increases
- increase in systemic exposure following QD dosing ([1]; steady state): approximately 2 fold
- time postdose at which mean serum DHT began to decrease ([2]; Part 1 single doses 80-360 mg): 2 h
- mean serum dihydrotestosterone at end of 16 days ([2]; Part 2, 80 mg, baseline 1.883 nmol/L): 1.095 nmol/L
- mean serum dihydrotestosterone at end of 16 days ([2]; Part 2, 180 mg, baseline 1.882 nmol/L): 0.865 nmol/L
- Testosterone Mean (Std Dev) ([3]; 80 mg QD, Baseline): 13.755 (4,7256) nmol/L
- Testosterone Median ([3]; 80 mg QD, Baseline): 12.700 nmol/L
- Testosterone Mean (Std Dev) ([3]; 80 mg QD, End of Study): 6.933 (6.4298) nmol/L
- Testosterone Median ([3]; 80 mg QD, End of Study): 5.340 nmol/L
- Testosterone Mean (Std Dev) ([3]; 80 mg QD, End of Treatment): 7.211 (9.2178) nmol/L
- Testosterone Median ([3]; 80 mg QD, End of Treatment): 3.125 nmol/L
- Testosterone Mean (Std Dev) ([3]; 80 mg QD, Follow-Up): 11.004 (5.9971) nmol/L
- Testosterone Median ([3]; 80 mg QD, Follow-Up): 13.185 nmol/L
- Testosterone Median ([3]; 80 mg QD, Week 49, Day 1): 0.380 nmol/L
- Testosterone Median ([3]; 120 mg QD, Baseline): 14.350 nmol/L
- Median testosterone ([3]; 120 mg QD, EOS (12 weeks after stopping)): 322.8 ng/dL
- Median testosterone ([3]; 120 mg QD, EOT (4 weeks after end of treatment)): 72.9 ng/dL
- Testosterone Mean (Std Dev) ([3]; 120 mg QD, End of Study): 9.565 (7.6479) nmol/L
- Testosterone Median ([3]; 120 mg QD, End of Study): 11.210 nmol/L
- Testosterone Mean (Std Dev) ([3]; 120 mg QD, End of Treatment): 3.592 (3.7809) nmol/L
- Testosterone Median ([3]; 120 mg QD, End of Treatment): 2.530 nmol/L
- Testosterone Median ([3]; 120 mg QD, Follow-Up): 11.450 nmol/L
- Median testosterone ([3]; 120 mg QD, Follow-up visit (8 weeks after stopping)): 329.8 ng/dL
- Testosterone Mean (Std Dev) ([3]; 120 mg QD, Week 49, Day 1): 0.443 (0.2745) nmol/L
- Testosterone Median ([3]; 120 mg QD, Week 49, Day 1): 0.365 nmol/L
- serum testosterone after stopping treatment ([3]; 4 weeks after the end of treatment): > 50 ng/dL
- visit by which average serum testosterone decreased below medical castration threshold of 50 ng/dL [3, 6]: Day 4
- visit by which average serum testosterone decreased below profound castration threshold of 20 ng/dL [3, 6]: Week 5 Day 1
- Testosterone Mean (Std Dev) ([3]; Compound 1 Total, Baseline): 14.4 nmol/L
- Testosterone Median ([3]; Compound 1 Total, Baseline): 13.600 nmol/L
- Testosterone Mean (Std Dev) ([3]; Compound 1 Total, End of Study): 8.249 (7.0702) nmol/L
- Testosterone Median ([3]; Compound 1 Total, End of Study): 7.425 nmol/L
- Testosterone Mean (Std Dev) [3, 7]: 5.039 (6.6432) nmol/L
- Testosterone Median [3, 7]: 2.530 nmol/L
- Testosterone Mean (Std Dev) ([3]; Compound 1 Total, Follow-Up): 12.094 (5.9829) nmol/L
- Testosterone Median ([3]; Compound 1 Total, Follow-Up): 11.970 nmol/L
- Testosterone Mean (Std Dev) [3, 8]: 0.487 (0.3867) nmol/L
- Testosterone Median [3, 8]: 0.380 nmol/L
- median serum testosterone ([3]; Compound 1 groups, weeks 5-49): < 20 ng/dL
- testosterone surge or tumor flare after treatment initiation ([3]; in vivo): No serum testosterone surge or resultant tumor flare occurred
- FSH Mean (Std Dev) ([4]; 80 mg QD, Baseline): 14.729 (14.3473) IU/L
- FSH Median ([4]; 80 mg QD, Baseline): 9.550 IU/L
- FSH Mean (Std Dev) ([4]; 80 mg QD, Week 2, Day 1): 3.112 (3.0612) IU/L
- FSH Median ([4]; 80 mg QD, Week 2, Day 1): 2.100 IU/L
- FSH Mean (Std Dev) ([4]; 80 mg QD, Week 5, Day 1): 1.248 (2.6737) IU/L
- FSH Median ([4]; 80 mg QD, Week 5, Day 1): 0.400 IU/L
- FSH Mean (Std Dev) ([4]; 80 mg QD, Week 13, Day 1): 1.137 (2.4242) IU/L
- FSH Median ([4]; 80 mg QD, Week 13, Day 1): 0.500 IU/L
- FSH Mean (Std Dev) ([4]; 80 mg QD, Week 25, Day 1): 1.090 (0.9932) IU/L
- FSH Median ([4]; 80 mg QD, Week 25, Day 1): 0.800 IU/L
- FSH Mean (Std Dev) ([4]; 80 mg QD, Week 49, Day 1): 1.802 (1.3956) IU/L
- FSH Median ([4]; 80 mg QD, Week 49, Day 1): 1.450 IU/L
- FSH Median ([4]; 120 mg QD, Baseline): 11.050 IU/L
- FSH Mean (Std Dev) ([4]; 120 mg QD, Week 2, Day 1): 3.183 (2.8956) IU/L
- FSH Median ([4]; 120 mg QD, Week 2, Day 1): 2.300 IU/L
- FSH Mean (Std Dev) ([4]; 120 mg QD, Week 5, Day 1): 1.035 (1.0479) IU/L
- FSH Median ([4]; 120 mg QD, Week 5, Day 1): 0.600 IU/L
- FSH Mean (Std Dev) ([4]; 120 mg QD, Week 13, Day 1): 0.908 (0.8104) IU/L
- FSH Median ([4]; 120 mg QD, Week 13, Day 1): 0.600 IU/L
- FSH Mean (Std Dev) ([4]; 120 mg QD, Week 25, Day 1): 1.344 (0.9675) IU/L
- FSH Median ([4]; 120 mg QD, Week 25, Day 1): 1.200 IU/L
- FSH Mean (Std Dev) ([4]; 120 mg QD, Week 49, Day 1): 1.938 (1.2169) IU/L
- FSH Median ([4]; 120 mg QD, Week 49, Day 1): 1.600 IU/L
- FSH range over the course of 48 weeks ([4]; 120 mg dose, >10 mIU/mL at baseline): 0.6-1.6 mIU/mL
- FSH Mean (Std Dev) ([4]; Compound 1 Total, Baseline): 15.269 (13.5920) IU/L
- FSH Median ([4]; Compound 1 Total, Baseline): 9.850 IU/L
- FSH Mean (Std Dev) [4, 9]: 3.147 (2.9653) IU/L
- FSH Median [4, 9]: 2.150 IU/L
- FSH Mean (Std Dev) [4, 10]: 1.143 (2.0379) IU/L
- FSH Median [4, 10]: 0.550 IU/L
- FSH Mean (Std Dev) [4, 11]: 1.025 (1.8164) IU/L
- FSH Median [4, 11]: 0.500 IU/L
- FSH Mean (Std Dev) [4, 12]: 1.215 (0.9838) IU/L
- FSH Median [4, 12]: 0.900 IU/L
- FSH Mean (Std Dev) [4, 8]: 1.867 (1.3077) IU/L
- FSH Median [4, 8]: 1.500 IU/L
- median FSH ([4]; after 48 weeks of treatment): 1.62 mIU/mL
- AMS total score, mean ([5]; 80 mg QD): 29.8
- AMS total score after treatment, mean percent change from baseline ([5]; 80 mg QD, EOS): 21.9%
- AMS total score after treatment, mean percent change from baseline ([5]; 80 mg QD, EOT): 30.5%
- AMS total score after treatment, mean percent change from baseline ([5]; 80 mg QD, Follow-up): 31.8%
- AMS total score, mean percent change from baseline ([5]; 80 mg QD, W5, D1): 3.9%
- AMS total score, mean percent change from baseline ([5]; 80 mg QD, W13, D1): 14.8%
- AMS total score, mean percent change from baseline ([5]; 80 mg QD, W25, D1): 20.3%
- AMS total score, mean percent change from baseline ([5]; 80 mg QD, W49, D1): 30.1%
- AMS total score, mean ([5]; 120 mg QD): 29.9
- AMS total score after treatment, mean percent change from baseline ([5]; 120 mg QD, EOS): 25.3%
- AMS total score after treatment, mean percent change from baseline ([5]; 120 mg QD, Follow-up): 25.2%
- AMS total score, mean percent change from baseline ([5]; 120 mg QD, W5, D1): 10.9%
- AMS total score, mean percent change from baseline ([5]; 120 mg QD, W13, D1): 17.3%
- AMS total score, mean percent change from baseline ([5]; 120 mg QD, W25, D1): 20.4%
- AMS total score, mean percent change from baseline ([5]; 120 mg QD, W37, D1): 24.5%
- AMS total score, mean percent change from baseline ([5]; 120 mg QD, W49, D1): 24.4%
- QOL (AMS, EORTC QLQ-PR25 sexual activity) during 12 week recovery ([5]; after discontinuation of 48 weeks of treatment): appeared to improve more in the Compound 1 group than the leuprorelin group
